Experimental data as given in patent US20130303564A1, “METHOD FOR TREATING A NEURODEGENERATIVE DISORDER” (RUSH UNIVERSITY MEDICAL CENTER, priority 2012, published 2013).
Where two headings read alike, the source gives them in different places. Marks after values point to notes of the source that are not given here.

Experiments:
primary mouse microglia = experiment: LPS-induced NO (nitrite) production in primary mouse microglia; assay type: cell-based
Protocol: Primary mouse microglia were treated with different concentrations of NaPB for 6 h followed by stimulation with LPS under serum-free condition. After 24 h of stimulation, concentrations of nitrite were measured in supernatants (A) and the level of iNOS protein was monitored in cells by Western blot (B). […] After 5 h of stimulation, the expression of iNOS mRNA was monitored by semi-quantitative RT-PCR (C). Cells preinctibated with different concentration of trichostatin A (TSA) and sodium butyrate (NaBu) for 6 h were stimulated with LPS for 24 h under serum-free condition followed by monitoring the level of nitrite in supernatants (p). […] Primary human astroglia isolated from fetal brain tissues were treated with different concentrations of NaPB for 6 h followed by stimulation with IL-1β under serum-free condition. After 48 h of stimulation, concentrations of nitrite (E) were measured in supernatants. Human astroglia plated at 70-80% confluence in 12-well plates were co-transfected with 0.25 μg of phiNOS(7.2)Luc and 12.5 ng of pRL-TK using the Lipofectamine-Plus (Invitrogen). Twenty-four h after transfection, cells received NaPB. After 6 h of incubation, cells were stimulated with IL-1β (20 ng/ml) for 12 h. Firefly (ff-Luc) and Renilla (r-Luc) luciferase activities were obtained by analyzing the total cell extract (F).
(§1) Activated microglia and astroglia are known to produce excessive amount of NO having the potential of damaging neurons in neurodegenerative disorders. We investigated the effect of NaPB on the expression of iNOS in microglia. LPS is a prototype inducer of various proinflammatory molecules in different cell types including mouse microglia. Therefore, primary mouse microglia preincubated with different doses of NaPB for 6 h were stimulated with LPS under serum-free condition. […] We used trichostatin A (TSA) and sodium butyrate (NaBu) for this purpose.
(§2) Isolation of Mouse Microglia: Microglia were isolated from mixed glial cultures. Briefly, on day 7-9, the mixed glial cultures were washed three times with Dulbecco's modified Eagle's medium/F-12 and subjected to shaking at 240 rpm for 2 h at 37° C. on a rotary shaker. The floating cells were washed and seeded on to plastic tissue culture flasks and incubated at 37° C. for 1 h. The attached cells were seeded onto new plates for further studies. […] Mouse BV-2 microglial cells (kind gift from Virginia Bocchini of Universityof Perugia) were also maintained and induced as indicated above.

[1] = system: chronic MPTP mouse model of PD; settings: oral 100 mg/kg body wt/d from the third injection of MPTP/probenecid
Protocol: A) Six to eight week old male C57BL/6 mice received 10 injections of MPTP (s.c.; 25 mg/kg body weight) together with 10 injections of probenecid (i.p.; 250 mg/kg body weight) for 5 weeks. Control group of mice received only saline. One group of mice were treated with NaPB (100 mg/kg body weight/d) via gavage from the 3rd injection of MPTP/probenecid and continued for 1 week thereafter. Mice were tested for different motor tasks [horizontal activity (C), number of movements (D), rearing (E), and stereotypy (F)] one week after the last injection of MPTP followed by measuring the level of DA in striatum (B). Data are means+SEM of eight mice per group. ^ap<0.001 vs saline; ^bp<0.001 vs MPTP; p<0.05 vs saline; ^dp<0.05 vs MPTP.
We examined if NaPB was capable of protecting neurons in a chronic model (FIG. 10A). […] We initiated oral NaPB treatment (100 mg/kg body wt/d) from the third injection of MPTP/probenecid (FIG. 10A). […]
Behavioral analyses: Two types of behavioral experiments were conducted. This included open field experiment for locomotor activity and rotorod experiment for feet movement. .Locomotor activity was measured after 7 d of the last dose of MPTP injection in Digiscan Monitor (Omnitech Electronics, Inc., Columbus, Ohio). […] [sequence] software was used to analyze and store horizontal and vertical activity data, which were monitored automatically by infra-red beams.

p21^rac [2] = settings: 200 mg/kg body wt/day gavage from 1 d prior to MPTP; 6 h after last MPTP
Protocol: A) Mice were treated with NaPB (200 mg/kg body wt/d.) via gavage from 1 d prior to MPTP injection. Six h after the last injection of MPTP, activation of p21^ras and p21^rac was monitored in ventral midbrain tissues. Experiment was repeated three times each time using two animal in each group. B) Bands from three different mice were quantified and activation of p21^ras and p21^rac is shown as percent of control, C) Mice were treated with NaPB (200 mg/kg body wt/d) from 3 h after the last injection of MPTP.
Animals and MPTP intoxications: Six- to eight-week old C57BL/6 mice were purchased from Harlan, Indianapolis, Ind. For acute MPTP intoxication, mice received four intraperitoneal (i.p.) injections of MPTP-HCl (18 mg/kg of free base; Sigma Chemical Co., St. Louis, Mo.) in saline at 2 hr intervals. Control animals received only saline.

p21^ras = settings: 500 μM preincubation
Protocol: A) Mouse BV-2 microglial cells preincubated with different concentrations of FTI and GGTI were stimulated with LPS for 60 min followed by monitoring the activation of NF-κB by EMSA. B) Cells preincubated with different concentrations of FTI and GGTI were stimulated with LPS for 10 min followed by monitoring the production of superoxide. […] C) Cells were transfected with Δp21^ras, Δp21^rac or an empty vector using Lipofectamine Plus. Twenty-four hour after transfection, cells were stimulated with LPS followed by monitoring superoxide production at 15 and 30 ‘rain of stimulation. ^ap<0.001 vs control; ^bp<0.001 vs LPS-15 min; ^cp<0.001 vs LPS-30 min. D) Cells preincubated with 500 μM NaPB were stimulated with LPS. At different time points, activation of p21^ras and p21^rac was monitored. Results represent three independent experiments.
Next, we examined the effect of NaPB on the activation of p21^ras and p21^rac.
Activation of p21^ras and p21^rac: Activation of p21^ras was monitored. Briefly, after 6 h of MPTP insult, ventral midbrain was dissected out and frozen immediately on dry ice. […] Then the amount of activated p21^ras was determined in GST beads by a Western blot using a p21^ras specific antibody.

IL-1β [3] = settings: 200 mg/kg body wt/d from 3 h after last MPTP; RT-PCR, real-time PCR
Protocol: (§3) A) Mice were treated with NaPB (200 mg/kg body wt/d) from 3 h after the last injection of MPTP. […] The mRNA expression of TNF-α, iNOS and IL-1β was analyzed by semi-quantitative RT-PCR (C) and quantitative real-time PCR (D).
(§4) Semi-quantitative RT-PCR analysis for proinflammatory molecules (iNOS, IL-1β and TNF-α) and glial cell markers: Total RNA was isolated from ventral midbrain using Ultraspec-II RNA reagent (Biotecx .Laboratories, Inc., Houston, Tex.) following manufacturer's protocol. To remove any contaminating genomic DNA, total RNA was digested with DNase. RT-PCR was carried out using a RT-PCR kit (Clontech., Mountain View, Calif.) and following primers.
(§5) Real-time PCR analysis: It was performed in the ABI-Prism7700 sequence detection system (Applied Biosystems, Foster City, Calif.) using TaqMan Universal Master mix and optimized concentrations of FAM-labeled probes and primers.

TNF-α [4] = settings: 200 mg/kg body wt/d from 3 h after last MPTP; RT-PCR, real-time PCR
Protocol: as §3, §4, §5

iNOS = system: iNOS
Protocol: as §3, §4, §5

IL-1β [5] = system: IL-1β
Protocol: as §1, §2

TNF-α [6] = system: TNF-α
Protocol: as §1, §2

p21^rac [7] = settings: 500 μM preincubation
Protocol: D) Cells preincubated with 500 μM NaPB were stimulated with LPS. At different time points, activation of p21^ras and p21^rac was monitored. Results represent three independent experiments.

BV-2 microglial cells [8] = settings: 500 μM, 6 h, 1 μM MPP+ 15 min
Protocol: Cells were treated with 500 μM NaPB for 6 h followed by stimulation with 1 μM MPP+. At 15 min of stimulation, the generation of ROS was monitored by carboxy-H2DCFDA (A).
We examined if Parkinsonian toxin MPP+ induced the production of ROS from microglia and if NaPB could attenuate such ROS production. To monitor the generation of intracellular ROS in BV-2 microglial cells, we used a cell-permeant fluorescent probe.
Monitoring microglial ROS production: Cells, cultured in 8-well chamber slides, were treated with MPP+ under serum-free condition. At different time points of stimulation, supernatants were removed and cells were washed with Hank's buffered salt solution (HBSS) followed by addition of 100 μl of 25 μM carboxy-H2DCFDA to each well for 30 min of incubation. During the last five minutes of incubation, Hoechst 33342 was added to each well at a dilution of 1:1000 for staining nuclei. Cells were then washed with HBSS, mounted with DPX mounting media and observed under an Olympus 1×81 fluorescent microscope.

[9] = system: RelA p65 at the mouse iNOS promoter; settings: 0.5 mM, 6 h preincubation, LPS 2 h; proximal NF-κB binding site
Protocol: D) Cells preincubated with 0.5 mM NaPB for 6 h were stimulated with LPS for 2 h followed by monitoring the recruitment of RelA p65 to the mouse iNOS promoter by ChIP assay.
Therefore, next we examined the effect of NaPB on the recruitment of p65 to the proximal NF-κB binding site of the iNOS promoter.
Chromatin immunoprecipitation (CUP): ChIP assays were performed using a ChIP assay kit (Upstate Biotechnology, Lake Placid, N.Y.). Briefly, 2×10^6 microglial cells preincubated with gemfibrozil for 6 h were stimulated with LPS. After 3 h of stimulation, cells were fixed by adding formaldehyde (1% final concentration), and cross-linked adducts were resuspended and sonicated, resulting in an average chromatin fragment size of 400 bp. ChIP was performed on the cell lysate by overnight incubation at 4° C. with 2 μg of antibodies against p65 followed by incubation with protein G agarose (Santa Cruz Biotechnology) for 2 h. The beads were washed and incubated with elution buMr. To reverse the cross-linking and purify the DNA, precipitates were incubated in a 65° C. incubator overnight and digested with proteinase K. DNA samples were then purified, precipitated, and precipitates were washed with 75% ethanol, air-dried, and resuspended in TE buffer.

BV-2 microglial cells [10] = experiment: Superoxide production in microglial cells; assay type: cell-based, mouse; settings: 500 μM
Excerpt: Results represent three independent experiments.
Superoxide measurements: Superoxide production was detected by LumiMax™ Superoxide Anion Detection Kit (Stratagene) as described by us (30).

MPTP-intoxicated mice = settings: NaPB 200 mg/kg body wt/day from 3 h after last MPTP; MPTP alone approximately 72% loss
Protocol: We monitored the level of nigral GSH by HPLC.
Analysis of GSH: Nigral tissues were dissected and then sonicated in 0.2M perchloric acid solution followed by centrifugation of nigral extracts at 12,000 rpm for 10 mins at 4° C. Resulting supernatants were analyzed for GSH in Complete Stand-Alone HPLC-ECD System EiCOMHTEC-500 using gold working electrode (Eicorn We-AU) and mobile phase containing 99% 0.1M sodium phosphate buffer (pH 2.5), 1% MeOH. (v/v), and 50 mg/L EDTA-2Na.

[11] = LPS + NaPB (0.1 mM), 6 hrs preincubation, LPS 24 hrs, supernatant ELISA
[12] = LPS + NaPB (0.2 mM), 6 hrs preincubation, LPS 24 hrs, supernatant ELISA
[13] = LPS + NaPB (0.5 mM), 6 hrs preincubation, LPS 24 hrs, supernatant ELISA

sodium phenylbutyrate [NaPB]
inhibition of LPS-induced production of NO (primary mouse microglia; 1 or 2 h preincubation (data not shown)): not sufficient
inhibition of LPS-induced production of NO (primary mouse microglia; higher concentrations (>200 μM), 6 h preincubation): markedly suppressed
inhibition of LPS-induced production of NO (primary mouse microglia; lower concentration (100 μM), 6 h preincubation): not effective
locomotor activities (horizontal activity, number of movements, rearing, stereotypy) [1]: improved
MPTP-induced activation of p21^rac in the nigra (p21^rac [2]): much decreased activation
LPS-induced activation of p21^ras (p21^ras): markedly suppressed
MPTP-induced mRNA expression of IL-1β in the nigra (IL-1β [3]): strongly inhibited
MPTP-induced mRNA expression of TNF-α in the nigra (TNF-α [4]): strongly inhibited
MPTP-induced mRNA expression of iNOS in the nigra (iNOS; 200 mg/kg body wt/d from 3 h after last MPTP, RT-PCR, real-time PCR): strongly inhibited
expression of iNOS mRNA in the nigra, time course (iNOS; 200 mg/kg body wt/d gavage from 1 d prior to MPTP, all time points tested (up to 24 h)): markedly inhibited
MPTP-induced expression of iNOS protein (iNOS; 200 mg/kg body wt/d oral from 3 h after last MPTP, 24 h): suppressed
IL-1β production (IL-1β [5]; [11]): 9.9 ± 1.4 ng/mg protein/24 hr
IL-1β production (IL-1β [5]; [12]): 7.5 ± 1.1 ng/mg protein/24 hr
IL-1β production (IL-1β [5]; [13]): 5.3 ± 0.6^a ng/mg protein/24 hr
IL-1β production (IL-1β [5]; NaPB (0.5 mM) only, no LPS): 0 ng/mg protein/24 hr
production of IL-1β protein in activated microglia (IL-1β [5]; Table 1): dose-dependently inhibited
TNF-α production (TNF-α [6]; [11]): 16.8 ± 1.5 ng/mg protein/24 hr
TNF-α production (TNF-α [6]; [12]): 12.7 ± 0.8 ng/mg protein/24 hr
TNF-α production (TNF-α [6]; [13]): 8.6 ± 1.1^a ng/mg protein/24 hr
TNF-α production (TNF-α [6]; NaPB (0.5 mM) only, no LPS): 0 ng/mg protein/24 hr
production of TNF-α protein in activated microglia (TNF-α [6]; Table 1): dose-dependently inhibited
LPS-induced activation of p21^rac (p21^rac [7]): markedly suppressed
MPP+-induced production of intracellular ROS (BV-2 microglial cells [8]): strongly inhibited
recruitment of p65 to the iNOS promoter [9]: inhibited
MPP+-induced production of superoxide (BV-2 microglial cells [10]; 6 h, 1 μM MPP+): attenuated
LPS-, TNF-α-, IL-1β-, gp120-, and Aβ-induced production of superoxide (BV-2 microglial cells [10]; 6 h preincubation, 10 min stimulation): knocked down
loss of nigral GSH (MPTP-intoxicated mice): 18%
